{
  "source": "patent US20140128402A1",
  "about": "“PHARMACEUTICAL COMBINATION” (IPCA Laboratories Limited, priority 2011, published 2014)",
  "format_in_all_cases": "in vivo, Wistar rats",
  "key": {"[1]": {"system": "STZ-induced diabetic rats", "assay": "Study No 1: biochemical parameters in STZ-induced diabetic rats", "details": "after 21 days", "experimental": "(§1) In this experiment 48 Wistar rats weighing 130-150 g of either sex were divided randomly into 8 groups consisting of 6 rats each. The study drugs suspended in vehicle [0.1% w/v suspension of Tween 80 and carboxymethylcellulose (CMC) in water] were administered for orally for 21 days. Group 1 (normal vehicle control) consisted of normal rats that neither received streptozotocin nor any test drug; Group 2 served as streptozotocin induced diabetic control (Diabetes was induced in rats by single administration of streptozotocin (60 mg/kg/i.p) dissolved in 0.1 M-citrate buffer, pH 4.5). Forty-eight hours later, blood samples were collected and glucose levels were determined to confirm the development of diabetes. […] Group 3 was diabetic rats treated with dose equivalent to human therapeutic dose of sitagliptin (STG) (11 mg/kg); Group 4 was diabetic rats treated with dose equivalent to human therapeutic dose of Hydroxychloroquine (HCQ) (46 mg/kg), Group 5 was diabetic rats treated with combination of HCQ 46 mg/kg and STG11 mg/kg; […] For other biochemical parameters i.e. […] Other parameters like body weight, food intake and water intake were evaluated weekly till day 21st."}, "[2]": {"system": "STZ-induced diabetic rats", "assay": "Study No 1: blood glucose in STZ-induced diabetic rats (HCQ with sitagliptin)", "experimental": "In this experiment 48 Wistar rats weighing 130-150 g of either sex were divided randomly into 8 groups consisting of 6 rats each. The study drugs suspended in vehicle [0.1% w/v suspension of Tween 80 and carboxymethylcellulose (CMC) in water] were administered for orally for 21 days. Group 1 (normal vehicle control) consisted of normal rats that neither received streptozotocin nor any test drug; Group 2 served as streptozotocin induced diabetic control (Diabetes was induced in rats by single administration of streptozotocin (60 mg/kg/i.p) dissolved in 0.1 M-citrate buffer, pH 4.5). Forty-eight hours later, blood samples were collected and glucose levels were determined to confirm the development of diabetes.\nBlood glucose level was measured in normal and experimental rats at 1st, 7th, 14th and 21st day of administration. For other biochemical parameters i.e. Insulin, HbA1c, Triglycerides, Total Cholesterol, HDL, SGOT, SGPT, Total Protein, Albumin, Creatinine and Urea Blood samples were collected 1 h after the last dose administration from 18 h fasted rats through the retro-orbital plexus under chloroform anesthesia and analyzed using autoanalyzer (Microlab 2000). Other parameters like body weight, food intake and water intake were evaluated weekly till day 21st."}, "[3]": {"system": "STZ-induced diabetic rats", "assay": "Study No 1: body weight, food intake and water intake in STZ-induced diabetic rats", "details": "for AVERAGE WATER INTAKE: oral", "experimental": "as §1"}, "[4]": {"details": "subtherapeutic dose: STG 5.5, HCQ 23, STG+HCQ 5.5+23 mg/kg/day oral"}, "[5]": {"details": "therapeutic dose: STG 11, HCQ 46, STG+HCQ 11+46 mg/kg/day oral"}},
  "data": [
    {"molecule": "N[C@@H](CC(=O)N1CCn2c(nnc2C(F)(F)F)C1)Cc1cc(F)c(F)cc1F", "note": "[STG, Sitagliptin]", "values": [
      {"measurement": "Albumin", "setting": "[1]; [4]", "value": 2.20, "unit": "g/dL"},
      {"measurement": "Creatinine", "setting": "[1]; [4]", "value": 1.76},
      {"measurement": "HDL-C", "setting": "[1]; [4]", "value": 23.92, "unit": "mg/dL"},
      {"measurement": "HbA1c", "setting": "[1]; [4]", "value": 5.12},
      {"measurement": "Insulin (serum)", "setting": "[1]; [4]", "value": 4.43},
      {"measurement": "SGOT", "setting": "[1]; [4]", "value": 54.02},
      {"measurement": "SGPT", "setting": "[1]; [4]", "value": 54.64},
      {"measurement": "TC", "setting": "[1]; [4]", "value": 156.69, "unit": "mg/dL"},
      {"measurement": "TG", "setting": "[1]; [4]", "value": 121.91, "unit": "mg/dL"},
      {"measurement": "Total Protein", "setting": "[1]; [4]", "value": 4.15, "unit": "g/dL"},
      {"measurement": "Urea", "setting": "[1]; [4]", "value": 45.05, "unit": "mg/dL"},
      {"measurement": "Albumin", "setting": "[1]; [5]", "value": 2.63, "unit": "g/dL"},
      {"measurement": "Creatinine", "setting": "[1]; [5]", "value": 1.63},
      {"measurement": "HDL-C", "setting": "[1]; [5]", "value": 26.04, "unit": "mg/dL"},
      {"measurement": "HbA1c", "setting": "[1]; [5]", "value": 5.04},
      {"measurement": "Insulin (serum)", "setting": "[1]; [5]", "value": 6.11},
      {"measurement": "SGOT", "setting": "[1]; [5]", "value": 51.47},
      {"measurement": "SGPT", "setting": "[1]; [5]", "value": 55.47},
      {"measurement": "TC", "setting": "[1]; [5]", "value": 146.92, "unit": "mg/dL"},
      {"measurement": "TG", "setting": "[1]; [5]", "value": 116.48, "unit": "mg/dL"},
      {"measurement": "Total Protein", "setting": "[1]; [5]", "value": 4.83, "unit": "g/dL"},
      {"measurement": "Urea", "setting": "[1]; [5]", "value": 23.57, "unit": "mg/dL"},
      {"measurement": "Plasma glucose concentration", "setting": "[2]; 1st day, subtherapeutic dose: STG 5.5, HCQ 23, STG+HCQ 5.5+23 mg/kg oral", "value": "267.17 ± 12.83", "unit": "mg/dL"},
      {"measurement": "Plasma glucose concentration", "setting": "[2]; 1st day, therapeutic dose: STG 11, HCQ 46, STG+HCQ 11+46 mg/kg oral", "value": "258.33 ± 11.57", "unit": "mg/dL"},
      {"measurement": "Plasma glucose concentration", "setting": "[2]; 7th day, subtherapeutic dose: STG 5.5, HCQ 23, STG+HCQ 5.5+23 mg/kg oral", "value": "261.83 ± 11.58", "unit": "mg/dL"},
      {"measurement": "Plasma glucose concentration", "setting": "[2]; 7th day, therapeutic dose: STG 11, HCQ 46, STG+HCQ 11+46 mg/kg oral", "value": "225.00 ± 12.63", "unit": "mg/dL"},
      {"measurement": "Plasma glucose concentration", "setting": "[2]; 14th day, subtherapeutic dose: STG 5.5, HCQ 23, STG+HCQ 5.5+23 mg/kg oral", "value": "227.83 ± 13.95", "unit": "mg/dL"},
      {"measurement": "Plasma glucose concentration", "setting": "[2]; 14th day, therapeutic dose: STG 11, HCQ 46, STG+HCQ 11+46 mg/kg oral, 46 mg/kg", "value": "206.17 ± 10.26", "unit": "mg/dL"},
      {"measurement": "Plasma glucose concentration", "setting": "[2]; 14th day, therapeutic dose: STG 11, HCQ 46, STG+HCQ 11+46 mg/kg oral, listed as sitagliptin, 46 mg/kg", "value": "significant improvement"},
      {"measurement": "Plasma glucose concentration", "setting": "[2]; 21st day, subtherapeutic dose: STG 5.5, HCQ 23, STG+HCQ 5.5+23 mg/kg oral", "value": "200.83 ± 4.71", "unit": "mg/dL"},
      {"measurement": "Plasma glucose concentration", "setting": "[2]; 21st day, therapeutic dose: STG 11, HCQ 46, STG+HCQ 11+46 mg/kg oral", "value": "156.50 ± 12.85", "unit": "mg/dL"},
      {"measurement": "AVERAGE WATER INTAKE", "setting": "[3]; Day 1, Sub-The (subtherapeutic dose)", "value": 28.33, "unit": "mL"},
      {"measurement": "AVERAGE WATER INTAKE", "setting": "[3]; Day 1, The (therapeutic dose)", "value": 30.67, "unit": "mL"},
      {"measurement": "Body Weight", "setting": "[3]; Day 1, subtherapeutic dose: STG 5.5, HCQ 23, STG+HCQ 5.5+23 mg/kg oral", "value": "145.83 ± 12.61", "unit": "g"},
      {"measurement": "AVERAGE FOOD INTAKE", "setting": "[3]; Day 1, subtherapeutic dose: STG 5.5, HCQ 23, combination 5.5+23 mg/kg oral", "value": 11.50, "unit": "g"},
      {"measurement": "Body Weight", "setting": "[3]; Day 1, therapeutic dose: STG 11, HCQ 46, STG+HCQ 11+46 mg/kg oral", "value": "137.83 ± 6.49", "unit": "g"},
      {"measurement": "AVERAGE FOOD INTAKE", "setting": "[3]; Day 1, therapeutic dose: STG 11, HCQ 46, combination 11+46 mg/kg oral", "value": 12.17, "unit": "g"},
      {"measurement": "AVERAGE WATER INTAKE", "setting": "[3]; Day 7, Sub-The (subtherapeutic dose)", "value": 27.17, "unit": "mL"},
      {"measurement": "AVERAGE WATER INTAKE", "setting": "[3]; Day 7, The (therapeutic dose)", "value": 29.00, "unit": "mL"},
      {"measurement": "Body Weight", "setting": "[3]; Day 7, subtherapeutic dose: STG 5.5, HCQ 23, STG+HCQ 5.5+23 mg/kg oral", "value": "147.83 ± 12.37", "unit": "g"},
      {"measurement": "AVERAGE FOOD INTAKE", "setting": "[3]; Day 7, subtherapeutic dose: STG 5.5, HCQ 23, combination 5.5+23 mg/kg oral", "value": 11.83, "unit": "g"},
      {"measurement": "Body Weight", "setting": "[3]; Day 7, therapeutic dose: STG 11, HCQ 46, STG+HCQ 11+46 mg/kg oral", "value": "142.67 ± 7.45", "unit": "g"},
      {"measurement": "AVERAGE FOOD INTAKE", "setting": "[3]; Day 7, therapeutic dose: STG 11, HCQ 46, combination 11+46 mg/kg oral", "value": 10.67, "unit": "g"},
      {"measurement": "AVERAGE WATER INTAKE", "setting": "[3]; Day 14, Sub-The (subtherapeutic dose)", "value": 26.67, "unit": "mL"},
      {"measurement": "AVERAGE WATER INTAKE", "setting": "[3]; Day 14, The (therapeutic dose)", "value": 28.50, "unit": "mL"},
      {"measurement": "Body Weight", "setting": "[3]; Day 14, subtherapeutic dose: STG 5.5, HCQ 23, STG+HCQ 5.5+23 mg/kg oral", "value": "150.50 ± 12.31", "unit": "g"},
      {"measurement": "AVERAGE FOOD INTAKE", "setting": "[3]; Day 14, subtherapeutic dose: STG 5.5, HCQ 23, combination 5.5+23 mg/kg oral", "value": 10.83, "unit": "g"},
      {"measurement": "Body Weight", "setting": "[3]; Day 14, therapeutic dose: STG 11, HCQ 46, STG+HCQ 11+46 mg/kg oral", "value": "149.00 ± 7.46", "unit": "g"},
      {"measurement": "AVERAGE FOOD INTAKE", "setting": "[3]; Day 14, therapeutic dose: STG 11, HCQ 46, combination 11+46 mg/kg oral", "value": 9.83, "unit": "g"},
      {"measurement": "AVERAGE WATER INTAKE", "setting": "[3]; Day 21, Sub-The (subtherapeutic dose)", "value": 27.00, "unit": "mL"},
      {"measurement": "AVERAGE WATER INTAKE", "setting": "[3]; Day 21, The (therapeutic dose)", "value": 27.17, "unit": "mL"},
      {"measurement": "AVERAGE FOOD INTAKE", "setting": "[3]; Day 21, subtherapeutic dose: STG 5.5, HCQ 23, combination 5.5+23 mg/kg oral", "value": 10.33, "unit": "g"},
      {"measurement": "AVERAGE FOOD INTAKE", "setting": "[3]; Day 21, therapeutic dose: STG 11, HCQ 46, combination 11+46 mg/kg oral", "value": 8.83, "unit": "g"}
    ]}
  ]
}
